Experimental data from patent US11098083B2, “Peptide that regulates fat metabolism and method for regulating fat metabolism” (SHENZHEN INSTITUTES OF ADVANCED TECHNOLOGY, priority 2017, dated 2021).
Ends that are not written are not given here.

Columns and labels:
wild-type C57BL/6 mice = assay: gavage of ISAP4, ISAP5, ISAP6: intestinal absorption of fat (olive oil) in normal mice; type: in vivo; settings: gavage 2 pmol/g daily one week, day 8 olive oil 200 μl, compared with saline control group, FIG. 9
Description: S410: effects of acute gavage of ISAP4, ISAP5, and ISAP6 on intestinal absorption of fat in normal mice may be studied.
15 male wild-type C57BL/6 mice of 6 weeks old may be divided into 5 groups, 3 in each group. There may be 3 experimental groups, and the mice in the 3 experimental groups may be administered with ISAP4, ISAP5, and ISAP6 at 2 pmol/g of body weight respectively. The mice in two control groups may be gavaged with an equal volume of normal saline daily for one week. On the 8th day of the experiment, 30 minutes after gavage of ISAP4, ISAP5, ISAP6 and normal saline respectively, the mice in the three experimental groups may be gavaged with 200 μl of sterilized olive oil, the mice in one of the control groups may also be intragstrically administered with 200 μl of sterilized olive oil to be a saline control group, and the mice in the other one of the control groups may further be gavaged with 200 μl of normal saline to be a negative control group. After 50 minutes, each mouse may be euthanized using 95% CO2 and dissected to obtain small intestines. The jejunum near the duodenum may be frozen and sliced, stained with oil red O, and counterstained with hematoxylin. An oil red O-positive area may be quantified by the ImageJ software under double-blind conditions and a ratio of the oil red O-positive area to a total area of the intestinal villi may be calculated. Statistical analysis may be performed to compare with the mince in the saline+olive oil group. ***: p<0.001. N=3.
The oil red O-positive area may be quantified by the ImageJ software under double-blind conditions and the ratio of the oil red O-positive area to the total area of the intestinal villi may be calculated. […] Meanwhile, referring to the sequence comparison shown in FIG. 8, it can be seen that SEQ ID NO. 12: PVPYPDPLEP, SEQ ID NO. 15: SVPSPDPLEP, SEQ ID NO. 13: PYPDPLEP and SEQ ID NO. 16: PSPDPLEP are highly similar in sequence, and these sequences may be very conservative in various species. […]

GPRC6A = target: T1, GPRC6A (Homo sapiens, UniProt Q5T6X5); assay: internalization of GPRC6A with Cy5-labelled peptides in hGPRC6A-overexpressed Hela cells; type: cell-based; settings: 100 nM, 37° C., 30 minutes, confocal microscope, FIG. 6C
T1 construct: expressed in transfected cells; host or cells: Hela cells (transfected with Lipofectamine 2000)
T1 sequence (Q5T6X5 19-926): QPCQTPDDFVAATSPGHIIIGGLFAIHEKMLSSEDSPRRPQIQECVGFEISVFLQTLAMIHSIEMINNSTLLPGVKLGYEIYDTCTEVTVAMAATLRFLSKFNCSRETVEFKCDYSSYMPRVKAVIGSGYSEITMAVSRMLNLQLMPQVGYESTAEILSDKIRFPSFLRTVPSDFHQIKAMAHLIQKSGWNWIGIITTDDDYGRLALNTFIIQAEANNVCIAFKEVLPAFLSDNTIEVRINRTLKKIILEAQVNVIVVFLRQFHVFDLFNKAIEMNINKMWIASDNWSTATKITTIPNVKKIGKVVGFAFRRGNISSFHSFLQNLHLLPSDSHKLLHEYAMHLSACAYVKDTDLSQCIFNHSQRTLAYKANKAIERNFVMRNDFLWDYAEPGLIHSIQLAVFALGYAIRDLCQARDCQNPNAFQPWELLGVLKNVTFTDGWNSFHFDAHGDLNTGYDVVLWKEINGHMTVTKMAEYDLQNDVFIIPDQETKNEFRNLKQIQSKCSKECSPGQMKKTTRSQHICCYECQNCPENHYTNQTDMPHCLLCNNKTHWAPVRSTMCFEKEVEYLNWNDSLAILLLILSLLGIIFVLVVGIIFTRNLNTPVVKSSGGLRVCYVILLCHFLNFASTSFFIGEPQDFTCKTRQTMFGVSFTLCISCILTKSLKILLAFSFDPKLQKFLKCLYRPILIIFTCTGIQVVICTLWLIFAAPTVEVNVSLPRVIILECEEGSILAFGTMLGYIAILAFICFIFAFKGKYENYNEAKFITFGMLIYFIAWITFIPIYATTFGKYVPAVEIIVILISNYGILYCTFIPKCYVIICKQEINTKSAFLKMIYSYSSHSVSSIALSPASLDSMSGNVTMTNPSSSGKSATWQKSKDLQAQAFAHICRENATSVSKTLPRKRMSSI
Description: S230: Cy5-labelled OCN, Cy5-labelled hOCN22, and Cy5-labelled ISAP^2 may promote internalization of GPRC6A in the GPRC6A-overexpressed Hela cells.
The hGPRC6A-expressed Hela cell suspension may be plated at a density of 1.6×10^5/ml into a 24-well tray, and each well of the tray may be pre-placed with a gelatin-coated coverslip. 0.5 mL of media containing the cells may be added into each well, and the cells may be incubating at 37° C. and 5% CO2 for 24 hours. The cells may be starved for 4 h in serum-free media before any treatment, and then 100 nM of Cy5-OCN, 100 nM of Cy5-hOCN22, and 100 nM of Cy5-ISAP2 may be added to each well respectively to incubate with the cells at 37° C. for 30 minutes. The cells may be fixed by polyoxymethylene for 30 minutes. Afterwards, Triton X may be added to incubate with the cells for 10 minutes. The cells may be stained with 4′,6-diamidino-2-phenylindole (DAPI, Sigma) for 10 seconds as per manufacturer's instructions, and observed and photographed by a fluorescence confocal microscope.

human GPRC6A (hGPRC6A) = target: T2, human GPRC6A (hGPRC6A) (Homo sapiens, UniProt Q5T6X5); assay: fluorescent binding of OCN peptides to cell membranes of Hela cells with hGPRC6A overexpressed; settings: cell membranes of Hela cells with hGPRC6A overexpressed, FIG. 6B
T2 construct: expressed in transfected cells; host or cells: Hela cells (transfected with Lipofectamine 2000)
T2 sequence (Q5T6X5 19-926): T1 sequence (Q5T6X5 19-926)
Description: S131: overexpression of hGPRC6A in Hela cells may be established.
1) Cell plating: A Hela cell suspension may be plated at a density of 1.6×10^5 cells/mL into a 6-well tray with 2 mL of DMEM per well, incubating at 37° C. and 5% CO2 for 24 hours.
2) A vector carrying hGPRC6A (pReceiver-M61) may be transfected into the Hela cells for overexpression, using Lipofectamine 2000 (Invitrogen) as per manufacturer's instructions, and media containing the vector may be replaced by normal media 4 hours later.
3) After the transfection, the cells may be cultured in the normal media for another 48 hours, and the normal media may be discarded. The cells attached on a bottom of each well may be washed twice with sterile PBS, and 300 μl of TRIzol solution may be added into each well. Cellular RNAs may be extracted as per RNAiso Plus (TaKaRa) instructions, and after a DNase treatment, may be reversely transcribed into cDNAs using DNAEngine and a SuperScript™ (Invitrogen, Canada) kit. The cDNAs may be used as a template, and real-time monitoring and analysis may be performed to fluorescent PCR products at various time points using a SYBR Green (Light Cycler Roche, Germany) method to detect expression levels of the hGPRC6A. […] The selected cell strain may then be detected for its gene expression by qPCR. […]

HFD mice [1] = assay: gavage of peptides in HFD mice: triglyceride in feces, week 7; type: in vivo, C57BL/6 mice; settings: gavage 2 pmol/g, feces of week 7, compared with HFD control group, FIG. 7B
Description: Feces of each mouse may be collected in week 7, baked at 60° C. for 3 days to ensure complete dryness. Then, 1 mg of the feces may be collected and soaked in 1 ml of a mixed solution consisting of chloroform and methanol in a ratio of 2:1. The soaked feces may then be disrupted with a tissue homogenizer and centrifuged to obtain a supernatant. The supernatant may be detected for triglyceride by the Roche blood biochemical analyzer. Experimental results are shown in FIG. 7B. **: P<0.01, ***: P<0.001.
Feces of the mice may be collected in the 7th week of the experiment and baked at 60° C. for 3 days to ensure complete dryness. Then, 1 mg of the feces may be weighed and soaked in 1 ml of a mixed solution containing chloroform and methanol in a ratio of 2:1. The feces with the mixed solution may be disrupted by a tissue homogenizer and centrifuged to obtain a supernatant. The supernatant may be detected for triglyceride by the Roche blood biochemical analyzer.
Feces of the mice may be collected in the 7th week of the experiment and baked at 60° C. for 3 days to ensure complete dryness. Then, 1 mg of the feces may be weighed and soaked in 1 ml of a mixed solution containing chloroform and methanol in a ratio of 2:1.The feces with the mixed solution may be disrupted by a tissue homogenizer and centrifuged to obtain a supernatant. The supernatant may be detected for triglyceride by the Roche blood biochemical analyzer.
Feces of each mouse may be collected in the 7th week of the experiment, and baked at 60° C. for 3 days to ensure complete dryness. 1 mg of the feces may be weighed and soaked in 1 ml of a mixed solution containing chloroform and methanol in a ratio of 2:1. The feces in the mixed solution may be disrupted by a tissue homogenizer and centrifuged to obtain a supernatant. The supernatant may be detected for triglyceride by the Roche blood biochemical analyzer.

HFD mice [2] = assay: gavage of peptides in HFD mice for 7 weeks: body weight; type: in vivo, C57BL/6 mice; settings: gavage 2 pmol/g of body weight for 7 weeks, compared with HFD control group, FIG. 7A
Description: Six-week-old male wild-type C57BL/6 mice may be divided into 6 groups, 6 mice in each group. Group #1 may be provided with ND, and groups #2 to #6 may be provided with HFD. Group #2 may be treated as a HFD control group. Groups #3 to #6 may be experimental groups, and mice ingroups #3 to #6 may be gavaged with OCN, ISAP1, ISAP2, and ISAP3 respectively at 2 pmol/g of body weight for 7 weeks. Body weight of each mouse may be monitored and measured once a week.
Six-week-old male wild-type C57BL/6 mice may be divided into 6 groups, 6 in each group. Group #1 may be provided with ND to be a ND control group, and groups #2 to #6 may be provided with HFD. Group #2 may be treated as a HFD control group. Groups #3 to #6 may be treated as experimental groups and may be gavaged with OCN, ISAP1, ISAP2, and ISAP3 respectively at 2 pmol/g of body weight daily for 7 weeks. Body weight may be monitored and measured once a week.
Six-week-old male wild-type C57BL/6 mice may be divided into 6 groups, 6 in each group. Group #1 may be provided with ND to be a ND control group, groups #2 to #6 may be provided with HFD. Group #2 may be treated as a HFD control group. Groups #3 to #6 may be treated as experimental groups, and may be gavaged with OCN, ISAP1, ISAP2, and ISAP3 respectively at 2 pmol/g of body weight daily for 7 weeks. A body weight of each mouse may be monitored and measured once a week.

Substance: PSPDPLEP [ISAP5]
- absorption of olive oil in the mice (oil red O-positive area / total area of intestinal villi) (wild-type C57BL/6 mice): effectively reduce the absorption of olive oil

Substance: PDPLEP [ISAP6]
- absorption of olive oil in the mice (oil red O-positive area / total area of intestinal villi) (wild-type C57BL/6 mice): effectively reduce the absorption of olive oil

Substance: Cy5-OCN: Cy-5-labeled OCN (osteocalcin protein) (YLYQWLGAPVPYPDPLEPRREVCELNPDCDELADHIGFQEAYRRFYGPV; ends and bridges not checked; also: Cy5 label, position not given here; UniProt P02818 52-100, looked up) [reference compound]
- distribution of Cy5-labelled peptide (internalization) (GPRC6A): distributed inside the cell

Substance: YLYQWLGASVPSPDPLEP [ISAP2]
- ability of binding with cell membranes, compared with hOCN (human GPRC6A (hGPRC6A)): consistent with that of hOCN
- content (level) of triglyceride in the feces (HFD mice [1]): significantly increased
- body weight (HFD mice [2]): significant weight loss

Substance: SVPSPDPLEP [ISAP4]
- absorption of olive oil in the mice (oil red O-positive area / total area of intestinal villi) (wild-type C57BL/6 mice): effectively reduce the absorption of olive oil

Substance: Cy5-ISAP2: Cy-5-labeled SEQ ID NO.2 (ISAP2) (YLYQWLGAPVPYPDPLEP; also: Cy5 label, position not given here; listed as Homo sapiens)
- distribution of Cy5-labelled peptide (internalization) (GPRC6A): distributed inside the cell

Substance: YLYQWLGASVPSPDPLEPR [ISAP3]
- content (level) of triglyceride in the feces (HFD mice [1]): significantly increased
- body weight (HFD mice [2]): significant weight loss
